Active and inactive are the calls of the source.
Legend:
[1] = target: Exodeoxyribonuclease V (Escherichia coli (strain K12), UniProt P04993+P07648+P08394); assay: E. coli RecBCD inhibitors, dose response, counter-screen for AddAB inhibitor project, absorbance, V66 E. coli, mutant T4 phage (AID 492957); type: functional, cell-based, Escherichia coli str. K-12 substr. MG1655
[2] = Counterscreen for AddAB inhibitors: absorbance-based bacterial cell-based high throughput dose response assay for inhibitors of bacterial viability. [Related pubchem assays (depositor defined):AID435030, AID449728, AID449731, AID488942, AID488955, AID488956]; type: functional
[3] = target: T1, Mu-type opioid receptor (Homo sapiens, UniProt P35372); assay: MOR antagonists, SAR follow-up, image-based (AID 2420); type: functional;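 also: compounds added before stimulation of receptor with agonist DAMGO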
[4] = target: T1, Mu-type opioid receptor; assay: MOR agonists by imaging, SAR follow-up, image-based (AID 2352); type: functional
[5] = target: T2, Delta-type opioid receptor (Homo sapiens, UniProt P41143); assay: DOR antagonists, SAR follow-up, image-based (AID 2357); type: functional
[6] = target: T3, Kappa-type opioid receptor (Homo sapiens, UniProt P41145); assay: KOR antagonists by imaging, SAR follow-up, image-based (AID 2348); type: functional
[7] = target: T3, Kappa-type opioid receptor; assay: KOR agonist analogs, imaging readout, SAR follow-up, image-based (AID 2359); type: functional
[8] = target: T3, Kappa-type opioid receptor; assay: kappa opioid receptor blockers, cell-based, luminescence, beta-arrestin, SAR follow-up (AID 2285); type: functional
[9] = target: T4, Tyrosine-protein phosphatase non-receptor type 7 (Homo sapiens, UniProt P35236); assay: SAR analysis of chemical inhibitors of HePTP using a Fluorescent assay - Set 2. [Related pubchem assays (depositor defined):AID1059, AID1077, AID1661, AID2085, AID521]; type: functional
T4 sequence (P35236 whole entry): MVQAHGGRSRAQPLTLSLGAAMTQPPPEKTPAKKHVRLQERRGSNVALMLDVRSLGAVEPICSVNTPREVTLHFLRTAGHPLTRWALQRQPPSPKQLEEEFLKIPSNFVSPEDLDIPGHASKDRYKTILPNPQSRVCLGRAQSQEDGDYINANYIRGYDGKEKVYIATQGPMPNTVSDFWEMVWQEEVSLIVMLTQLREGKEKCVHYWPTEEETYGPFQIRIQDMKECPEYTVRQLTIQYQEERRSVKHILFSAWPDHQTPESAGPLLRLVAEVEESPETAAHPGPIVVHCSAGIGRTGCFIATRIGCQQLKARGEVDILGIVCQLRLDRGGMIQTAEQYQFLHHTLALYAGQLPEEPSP

[10] = target: T2, Delta-type opioid receptor; assay: DOR agonists, SAR follow-up, image-based (AID 2370); type: functional
[11] = target: Dual specificity protein phosphatase 3 (Homo sapiens, UniProt P51452); assay: SAR VHR1 Fluorescent Assay for In Vitro dose response studies Set 2. [Related pubchem assays (depositor defined):AID1654, AID1661, AID1878]; type: functional
[12] = target: T5, Sphingosine 1-phosphate receptor 4 (Homo sapiens, UniProt O95977); assay: Fluorescence dose response cell-based high throughput screening assay for agonists of the Sphingosine 1-Phosphate Receptor 4 (S1P4). [Related pubchem assays: 1509 (Primary screen.), 1523 (Confirmation screen in triplicates.)]; type: functional
T5 sequence (O95977 whole entry): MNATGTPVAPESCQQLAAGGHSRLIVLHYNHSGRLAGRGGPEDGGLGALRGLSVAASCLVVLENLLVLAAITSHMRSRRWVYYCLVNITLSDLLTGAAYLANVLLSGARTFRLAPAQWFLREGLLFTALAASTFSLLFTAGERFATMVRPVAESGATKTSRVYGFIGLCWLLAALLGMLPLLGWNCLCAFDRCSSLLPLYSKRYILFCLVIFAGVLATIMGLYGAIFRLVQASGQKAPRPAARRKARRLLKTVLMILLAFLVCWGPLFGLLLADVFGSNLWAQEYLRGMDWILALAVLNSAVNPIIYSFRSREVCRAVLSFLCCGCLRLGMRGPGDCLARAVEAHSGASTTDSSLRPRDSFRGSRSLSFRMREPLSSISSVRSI

[13] = target: Sphingosine 1-phosphate receptor 1 (Homo sapiens, UniProt P21453); assay: Fluorescence-based counterscreen assay for S1P4 agonists: Cell-based dose response high throughput screening assay to identify agonists of the Sphingosine 1-Phosphate Receptor 1 (S1P1). [Related pubchem assays (depositor defined):AID1509, AID1523, AID1801, AID463107, AID463118, AID463119, AID463122, AID463123, AID463129, AID463225, AID504400, AID504460]; type: functional
[14] = target: T3, Kappa-type opioid receptor; assay: SAR analysis of small molecule agonists of the kappa opioid receptor via a luminescent beta-arrestin assay - Set 2. [Related pubchem assays (depositor defined):AID1777, AID1785, AID1786, AID1966, AID2133, AID2136, AID2284, AID449737]; type: functional
[15] = target: T1, Mu-type opioid receptor; assay: SAR Analysis of Antagonists of the MOR Receptor using an Image-Based Assay - Set 2. [Related pubchem assays (depositor defined):AID1777, AID1785, AID1786, AID1966, AID2133, AID2136, AID2284, AID2285, AID2420]; type: functional
[16] = target: T2, Delta-type opioid receptor; assay: SAR Analysis of Agonists of the DOR Receptor using an Image-Based Assay - Set 2. [Related pubchem assays (depositor defined):AID1777, AID1785, AID1786, AID1966, AID2133, AID2136, AID2284, AID2285, AID2370]; type: functional
[17] = target: T2, Delta-type opioid receptor; assay: SAR Analysis of Antagonists of the DOR Receptor using an Image-Based Assay - Set 2. [Related pubchem assays (depositor defined):AID1777, AID1785, AID1786, AID1966, AID2133, AID2136, AID2284, AID2285, AID2357]; type: functional
[18] = target: T1, Mu-type opioid receptor; assay: SAR Analysis of Agonists of the MOR Receptor using an Image-Based Assay - Set 3. [Related pubchem assays (depositor defined):AID1777, AID1785, AID1786, AID1966, AID2133, AID2136, AID2284, AID2285, AID2352]; type: functional
[19] = target: T3, Kappa-type opioid receptor; assay: SAR analysis of small molecule agonists of the kappa opioid receptor via a luminescent beta-arrestin assay - Set 3. [Related pubchem assays (depositor defined):AID1777, AID1785, AID1786, AID1966, AID2133, AID2136, AID2284, AID2500]; type: functional
[20] = target: T1, Mu-type opioid receptor; assay: SAR Analysis of Agonists of the MOR Receptor using an Image-Based Assay - Set 2. [Related pubchem assays (depositor defined):AID1777, AID1785, AID1786, AID1966, AID2133, AID2136, AID2284, AID2285, AID2352]; type: functional
[21] = target: T3, Kappa-type opioid receptor; assay: SAR analysis of Antagonists of the Kappa Opioid Receptor (KOR) using an Image-Based Assay - Set 2. [Related pubchem assays (depositor defined):AID1777, AID1785, AID1786, AID1966, AID2133, AID2136, AID2284, AID2285, AID2348]; type: functional
[22] = target: T3, Kappa-type opioid receptor; assay: KOR agonist analogs, arrestin-GFP redistribution, SAR follow-up, imaging, image-based, set 3 (AID 488833); type: functional
[23] = target: T2, Delta-type opioid receptor; assay: SAR Analysis of Agonists of the DOR Receptor using an Image-Based Assay - Set 3. [Related pubchem assays (depositor defined):AID1777, AID1786]; type: functional
[24] = target: T3, Kappa-type opioid receptor; assay: SAR analysis of Agonists of the Kappa Opioid Receptor (KOR) using an Image-Based Assay - Set 2. [Related pubchem assays (depositor defined):AID1777, AID1786, AID1966, AID2133, AID2136, AID2284, AID2285, AID2359]; type: functional

T2 sequence (P41143 whole entry): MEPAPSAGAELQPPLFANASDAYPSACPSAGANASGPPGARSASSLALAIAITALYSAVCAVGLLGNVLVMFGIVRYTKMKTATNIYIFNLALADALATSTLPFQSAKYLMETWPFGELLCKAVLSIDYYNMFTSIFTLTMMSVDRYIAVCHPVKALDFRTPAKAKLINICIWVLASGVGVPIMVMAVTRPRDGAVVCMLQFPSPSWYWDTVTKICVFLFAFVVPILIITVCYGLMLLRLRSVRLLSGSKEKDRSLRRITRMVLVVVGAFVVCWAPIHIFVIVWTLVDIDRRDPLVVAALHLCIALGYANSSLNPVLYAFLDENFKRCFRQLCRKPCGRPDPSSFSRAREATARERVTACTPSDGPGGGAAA
T1 sequence (P35372 whole entry): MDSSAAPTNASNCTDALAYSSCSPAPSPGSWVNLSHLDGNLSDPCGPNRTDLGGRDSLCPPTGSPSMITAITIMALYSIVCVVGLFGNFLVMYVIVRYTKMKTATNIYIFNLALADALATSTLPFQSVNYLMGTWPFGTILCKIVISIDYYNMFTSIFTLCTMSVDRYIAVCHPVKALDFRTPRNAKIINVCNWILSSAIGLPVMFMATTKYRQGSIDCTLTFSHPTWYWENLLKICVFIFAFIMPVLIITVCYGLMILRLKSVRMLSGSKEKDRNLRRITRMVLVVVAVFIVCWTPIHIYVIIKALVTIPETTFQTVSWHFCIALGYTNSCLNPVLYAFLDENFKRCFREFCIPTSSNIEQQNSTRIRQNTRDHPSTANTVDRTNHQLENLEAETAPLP
T3 sequence (P41145 whole entry): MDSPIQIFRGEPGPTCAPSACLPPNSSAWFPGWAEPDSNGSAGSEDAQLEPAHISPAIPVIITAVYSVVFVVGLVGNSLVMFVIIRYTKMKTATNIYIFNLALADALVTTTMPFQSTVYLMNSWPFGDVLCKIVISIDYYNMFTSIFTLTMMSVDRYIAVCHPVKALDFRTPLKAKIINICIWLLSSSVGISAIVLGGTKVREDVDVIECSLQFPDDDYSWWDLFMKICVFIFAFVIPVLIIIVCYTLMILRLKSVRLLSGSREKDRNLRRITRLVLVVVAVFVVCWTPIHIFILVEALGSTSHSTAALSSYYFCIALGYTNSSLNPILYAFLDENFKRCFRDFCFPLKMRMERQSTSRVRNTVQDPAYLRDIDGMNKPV
Chain of Sphingosine 1-phosphate receptor 1 (P21453 whole entry): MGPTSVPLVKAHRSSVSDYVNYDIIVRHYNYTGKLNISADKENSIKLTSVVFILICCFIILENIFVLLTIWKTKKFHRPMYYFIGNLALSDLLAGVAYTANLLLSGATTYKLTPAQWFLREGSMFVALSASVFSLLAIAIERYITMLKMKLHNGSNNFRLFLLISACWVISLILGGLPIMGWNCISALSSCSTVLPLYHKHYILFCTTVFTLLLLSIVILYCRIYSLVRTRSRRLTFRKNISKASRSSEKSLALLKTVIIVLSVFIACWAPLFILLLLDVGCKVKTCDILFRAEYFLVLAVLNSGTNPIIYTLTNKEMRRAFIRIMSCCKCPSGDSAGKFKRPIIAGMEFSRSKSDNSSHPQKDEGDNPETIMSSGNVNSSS
Chain of Dual specificity protein phosphatase 3 (P51452 whole entry): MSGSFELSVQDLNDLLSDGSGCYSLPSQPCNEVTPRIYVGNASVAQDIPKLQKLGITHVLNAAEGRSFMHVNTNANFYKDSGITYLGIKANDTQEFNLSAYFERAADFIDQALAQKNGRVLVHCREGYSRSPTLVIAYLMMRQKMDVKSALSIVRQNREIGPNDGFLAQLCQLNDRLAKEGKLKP
Chain of Exodeoxyribonuclease V (P04993 whole entry): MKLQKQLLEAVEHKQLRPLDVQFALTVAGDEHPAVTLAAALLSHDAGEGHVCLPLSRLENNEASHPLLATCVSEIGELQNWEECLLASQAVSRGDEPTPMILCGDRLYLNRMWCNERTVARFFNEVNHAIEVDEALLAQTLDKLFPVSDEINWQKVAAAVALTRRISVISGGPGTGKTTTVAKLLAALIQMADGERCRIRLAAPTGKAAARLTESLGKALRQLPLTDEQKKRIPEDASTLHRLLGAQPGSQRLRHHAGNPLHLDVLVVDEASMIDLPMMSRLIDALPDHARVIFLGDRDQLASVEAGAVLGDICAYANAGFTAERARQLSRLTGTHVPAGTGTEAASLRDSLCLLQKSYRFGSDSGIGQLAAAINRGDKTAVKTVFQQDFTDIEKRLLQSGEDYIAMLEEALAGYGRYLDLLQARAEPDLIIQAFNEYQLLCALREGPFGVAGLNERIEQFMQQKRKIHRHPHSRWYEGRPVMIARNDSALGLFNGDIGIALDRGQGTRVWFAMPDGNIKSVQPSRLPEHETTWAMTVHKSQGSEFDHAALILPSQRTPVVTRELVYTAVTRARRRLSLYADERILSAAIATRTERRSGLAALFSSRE
Chain of Exodeoxyribonuclease V (P07648 whole entry): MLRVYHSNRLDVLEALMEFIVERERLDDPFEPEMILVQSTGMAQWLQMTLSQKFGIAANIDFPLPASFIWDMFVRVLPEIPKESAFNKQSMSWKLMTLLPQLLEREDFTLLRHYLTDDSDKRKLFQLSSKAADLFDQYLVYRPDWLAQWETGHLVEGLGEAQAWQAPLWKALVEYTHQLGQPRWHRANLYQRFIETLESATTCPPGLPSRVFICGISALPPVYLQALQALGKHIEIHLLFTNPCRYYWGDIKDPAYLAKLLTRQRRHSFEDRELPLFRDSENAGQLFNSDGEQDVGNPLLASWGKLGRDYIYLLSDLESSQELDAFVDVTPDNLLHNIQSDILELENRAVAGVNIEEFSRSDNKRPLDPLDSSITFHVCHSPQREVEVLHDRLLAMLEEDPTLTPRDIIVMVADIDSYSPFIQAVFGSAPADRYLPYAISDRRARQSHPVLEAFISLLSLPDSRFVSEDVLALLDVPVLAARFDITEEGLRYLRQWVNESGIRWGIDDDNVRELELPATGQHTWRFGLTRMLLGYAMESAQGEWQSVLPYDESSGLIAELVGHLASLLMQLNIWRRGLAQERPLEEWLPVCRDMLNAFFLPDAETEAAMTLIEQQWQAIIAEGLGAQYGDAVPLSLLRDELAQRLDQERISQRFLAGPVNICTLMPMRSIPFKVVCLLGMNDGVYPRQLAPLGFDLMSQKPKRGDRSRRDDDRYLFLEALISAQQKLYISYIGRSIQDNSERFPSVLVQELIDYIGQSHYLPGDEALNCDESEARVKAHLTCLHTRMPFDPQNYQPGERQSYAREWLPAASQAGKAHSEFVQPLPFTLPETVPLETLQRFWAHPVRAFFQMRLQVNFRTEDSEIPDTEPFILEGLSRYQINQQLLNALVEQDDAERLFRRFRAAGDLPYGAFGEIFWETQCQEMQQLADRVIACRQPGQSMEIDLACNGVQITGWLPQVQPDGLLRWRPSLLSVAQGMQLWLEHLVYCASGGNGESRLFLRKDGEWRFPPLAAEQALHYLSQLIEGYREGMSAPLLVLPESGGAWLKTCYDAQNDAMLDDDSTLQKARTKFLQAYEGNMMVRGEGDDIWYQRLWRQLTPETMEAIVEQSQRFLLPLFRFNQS
Chain of Exodeoxyribonuclease V (P08394 whole entry): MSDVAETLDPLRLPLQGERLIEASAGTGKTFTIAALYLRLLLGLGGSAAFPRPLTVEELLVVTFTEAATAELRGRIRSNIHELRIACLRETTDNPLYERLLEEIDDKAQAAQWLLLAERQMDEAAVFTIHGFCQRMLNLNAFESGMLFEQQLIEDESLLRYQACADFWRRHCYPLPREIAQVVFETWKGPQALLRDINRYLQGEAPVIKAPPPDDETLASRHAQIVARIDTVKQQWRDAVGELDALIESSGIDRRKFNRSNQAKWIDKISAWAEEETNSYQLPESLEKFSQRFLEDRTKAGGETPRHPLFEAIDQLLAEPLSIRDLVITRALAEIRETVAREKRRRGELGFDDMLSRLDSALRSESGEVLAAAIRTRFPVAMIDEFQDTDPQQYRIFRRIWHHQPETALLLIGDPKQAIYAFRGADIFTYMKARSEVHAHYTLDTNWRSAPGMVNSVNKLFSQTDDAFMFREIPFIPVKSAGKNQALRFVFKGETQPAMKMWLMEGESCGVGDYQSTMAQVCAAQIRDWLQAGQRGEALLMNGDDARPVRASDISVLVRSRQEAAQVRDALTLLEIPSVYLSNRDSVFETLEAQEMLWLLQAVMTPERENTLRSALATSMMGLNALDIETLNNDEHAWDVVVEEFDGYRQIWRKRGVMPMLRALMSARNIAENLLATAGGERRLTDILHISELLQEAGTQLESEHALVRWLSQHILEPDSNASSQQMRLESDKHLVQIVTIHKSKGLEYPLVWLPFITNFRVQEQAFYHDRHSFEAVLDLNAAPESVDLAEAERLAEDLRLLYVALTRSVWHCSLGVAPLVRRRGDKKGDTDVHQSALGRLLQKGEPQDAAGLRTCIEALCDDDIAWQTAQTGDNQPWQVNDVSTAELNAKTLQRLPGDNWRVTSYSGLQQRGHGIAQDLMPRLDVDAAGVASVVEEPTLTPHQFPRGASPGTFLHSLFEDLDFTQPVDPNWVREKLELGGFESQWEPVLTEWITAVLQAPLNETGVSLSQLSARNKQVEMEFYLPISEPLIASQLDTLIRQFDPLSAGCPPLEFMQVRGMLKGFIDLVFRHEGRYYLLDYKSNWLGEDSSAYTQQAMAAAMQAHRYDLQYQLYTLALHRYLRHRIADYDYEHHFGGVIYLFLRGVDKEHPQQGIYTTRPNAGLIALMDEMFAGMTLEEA

O=C(N/N=C\c1cccc(Cl)c1)c1ccc(Cn2cc(Br)c([N+](=O)[O-])n2)o1
IC50 [1]: > 119 µM (inactive) | IC50 [2]: > 119 µM (inactive)

O=C(NC(NC(=S)Nc1ccc(Cl)cc1Cl)C(Cl)(Cl)Cl)OCc1ccccc1 (centres undefined)
IC50 [3]: > 32 µM (inactive) | EC50 [4]: > 32 µM (inactive) | IC50 [5]: > 32 µM (inactive) | IC50 [6]: 0.879 µM (active) | EC50 [7]: > 32 µM (inactive) | IC50 [8]: 2.09 µM (active) | IC50 [9]: > 100 µM (inactive) | EC50 [10]: > 32 µM (inactive) | IC50 [11]: > 100 µM (inactive)

CC(=O)c1cc2ccc(O)cc2oc1=O
EC50 [12]: 1.88 µM (active) | EC50 [13]: 4.14 µM (active)

Clc1ccc(CSc2nnc(-c3ccccn3)n2Cc2cccs2)c(Cl)c1
EC50 [14]: 2.27 µM (active) | IC50 [15]: > 32 µM (inactive) | EC50 [16]: > 32 µM (inactive) | IC50 [17]: > 32 µM (inactive) | EC50 [18]: > 32 µM (inactive) | EC50 [19]: 1.38 µM (active) | EC50 [20]: > 32 µM (inactive) | IC50 [21]: > 32 µM (inactive) | EC50 [22]: 0.694 µM (active) | EC50 [23]: > 64 µM (inactive) | EC50 [24]: 8.11 µM (active)

Source: ChEMBL document CHEMBL1201862, “PubChem BioAssay data set” (2004)
